This is an account of results in ChEMBL document CHEMBL4483862, “Open-source discovery of chemical leads for next-generation chemoprotective antimalarials” (2018).

The structures appear in SMILES notation.

The test system of the experiment is Plasmodium berghei. Description: Luciferase/luciferin-expressing antifolate-resistant parasites were used to infect a culture of HepG2 cells that were pre-incubated with compounds. Infected hepatocytes emit light due to the luciferase reaction. Assay results are presented as the percent inhibition of light emission compared to control. […]. Particulars: sporozoite; for IC90: read-out: LUCIFERASE INFECTION ASSAY - IC90. The format is functional.

Where [1] appears, read: read-out: LUCIFERASE INFECTION ASSAY - IC50.

With `FC(F)(F)c1cccc(-c2noc(CCc3nc4ccccc4[nH]3)n2)c1`, the 90% effect concentration (IC90) was 7.22 µM. The IC50 (PBLUC_HILL_SLOPE 3.19, PBLUC_R_SQUARED 0.657, read-out: LUCIFERASE INFECTION ASSAY - IC50) is 3.63 µM.

As to `C#Cc1cccc(NC(=O)c2ccc(C(C)(C)C)s2)c1`, the 90% effect concentration (IC90) was 8.24 µM. Also, the IC50 (FFLUC_HILL_SLOPE 0.741, FFLUC_R_SQUARED 0.211, PBLUC_HILL_SLOPE 2.38, PBLUC_R_SQUARED 0.594, read-out: LUCIFERASE INFECTION ASSAY - IC50) was 3.28 µM.

Take `O=C(Nc1cc(C(F)(F)F)cc(C(F)(F)F)c1)c1cnn(-c2ccccc2)c1C(F)(F)F`: the 90% effect concentration (IC90) was above 7.06 µM. The half-maximal inhibitory concentration (IC50) under setting [1] is above 7.06 µM.

For the compound `O=C1C=CC(=O)N1c1cccc2ccccc12`, the IC90 is above 14.8 µM. Besides, the IC50 under setting [1] is above 14.8 µM.

On to `O=C(Nc1ccnn1Cc1cccc(Cl)c1)c1csc(-c2ccsc2)n1`, for which the concentration for an effect of 90% (IC90) is above 10 µM. Moreover, the half-maximal inhibitory concentration (IC50) under setting [1] was above 10 µM.

In the case of `CC(=O)Nc1ccc(-c2cnc3ccc(-c4ccc(F)c(Cl)c4)nn23)cc1`, the 90% effect concentration (IC90) was 3.52 µM. Under “FFLUC_HILL_SLOPE 64.9, FFLUC_R_SQUARED 0.6, HEPG2TOX_HILL_SLOPE 8.77, HEPG2TOX_R_SQUARED 0.612, PBLUC_HILL_SLOPE 16.7, PBLUC_R_SQUARED 0.645, read-out: LUCIFERASE INFECTION ASSAY - IC50”, the concentration for half-maximal inhibition (IC50) was found to be 3.09 µM.

Regarding `CC(C)N(CCNC(=O)c1ccc(CSc2nc3ccccc3s2)cc1)C(C)C`, the IC90 amounted to 9.07 µM. The IC50 (PBLUC_HILL_SLOPE 4.35, PBLUC_R_SQUARED 0.48, read-out: LUCIFERASE INFECTION ASSAY - IC50) was 5.47 µM.

For the compound `Cc1nn(C)c2nc(-c3cccs3)cc(C(=O)Nc3ccccc3C(=O)NCC3CCCO3)c12` (stereo not given), the concentration for an effect of 90% (IC90) was above 10 µM. For the same compound, the IC50 (PBLUC_HILL_SLOPE 3.11, PBLUC_R_SQUARED 0.411, read-out: LUCIFERASE INFECTION ASSAY - IC50) was 5.11 µM.

`Cc1ccc(NC(=O)c2cc3c(s2)CCCCCC3)nc1`: the IC90 turned out to be 5.93 µM. Besides, the IC50 (PBLUC_HILL_SLOPE 0.925, PBLUC_R_SQUARED 0.636, read-out: LUCIFERASE INFECTION ASSAY - IC50) came out at 0.551 µM.

In the case of `COc1cc2c(cc1OC)C(c1ccccc1)N(CC(=O)Nc1c(C)cc(C)cc1Cl)CC2` (stereo not given), the 90% effect concentration (IC90) is 9.2 µM. Further, the half-inhibitory concentration (IC50) (HEPG2TOX_HILL_SLOPE 7.81, HEPG2TOX_R_SQUARED 0.408, PBLUC_HILL_SLOPE 9.86, PBLUC_R_SQUARED 0.196, read-out: LUCIFERASE INFECTION ASSAY - IC50) was 7.36 µM.

For the compound `c1ccc(NCCNc2nc(-c3ccncc3)nc3ccccc23)nc1`, the IC90 was above 10 µM. The IC50 (PBLUC_HILL_SLOPE 1.36, PBLUC_R_SQUARED 0.325, read-out: LUCIFERASE INFECTION ASSAY - IC50) is 5.09 µM.

As for `O=C(Cc1noc2ccccc12)Nc1ccc(C(=O)N2CCCC2)cc1`, the 90% effect concentration (IC90) was above 10 µM. The half-maximal inhibitory concentration (IC50) under setting [1] was above 10 µM.

Consider `COc1cc(C(=O)Nc2ccc(-c3cn4ccsc4n3)cc2)ccc1OCC(=O)N1CCOCC1`, for which the IC90 was above 10 µM. The half-inhibitory concentration (IC50) under setting [1] was above 10 µM.

For the compound `O=C(c1cnc(Nc2cccc(C(F)(F)F)c2)[nH]1)c1ccccc1F`, the IC90 was above 9.45 µM. Besides, where the note is “PBLUC_HILL_SLOPE 15.7, PBLUC_R_SQUARED 0.709, read-out: LUCIFERASE INFECTION ASSAY - IC50”, the half-maximal inhibitory concentration (IC50) was determined as 9.07 µM.

For the compound `CC1=NN(c2ccc(C)c(Cl)c2)C(=O)/C1=C\c1ccc2c(c1)OCO2`, the IC90 was above 9.3 µM. Under setting [1], the IC50 is above 9.3 µM.

As for `C/C=C/c1ccc(OCC(O)Cn2c(=O)c(-c3ccccc3)[n+]([O-])c3ccccc32)c(OC)c1` (stereo not given), the IC90 came out at 9.19 µM. Moreover, under setting [1], the half-maximal inhibitory concentration (IC50) amounted to 1.21 µM.

Consider `Brc1ccc(-c2noc(CCc3nc4ccccc4[nH]3)n2)cc1`, for which the IC90 worked out at 7.07 µM. Also, the IC50 (HEPG2TOX_HILL_SLOPE 9.24, HEPG2TOX_R_SQUARED 0.722, PBLUC_HILL_SLOPE 3.58, PBLUC_R_SQUARED 0.661, read-out: LUCIFERASE INFECTION ASSAY - IC50) worked out at 3.83 µM.

For the compound `O=C(Nc1ccccc1O)c1ccc(Cn2ccnc2)cc1`, the IC90 stood at 6.19 µM. In addition, the IC50 (PBLUC_HILL_SLOPE 1.6, PBLUC_R_SQUARED 0.598, read-out: LUCIFERASE INFECTION ASSAY - IC50) stood at 1.57 µM.

As for `CNC(=O)c1ccc(/C=C/C(=O)c2ccc3cccc4c3c2CC4)cc1`, the 90% effect concentration (IC90) was above 10 µM. Also, the IC50 under setting [1] was above 10 µM.

`CN(C)c1ccc(-c2cnc3cnc(-c4ccc(C(=O)NCCO)cc4)cn23)cc1`: the concentration for an effect of 90% (IC90) is above 8.22 µM. In addition, the IC50 (PBLUC_HILL_SLOPE 2.64, PBLUC_R_SQUARED 0.078, read-out: LUCIFERASE INFECTION ASSAY - IC50) stood at 6.1 µM.

Regarding `CNc1nc2cnc(Nc3cc(OC)cc(C(F)(F)F)c3)cc2n1Cc1ccco1`, the 90% effect concentration (IC90) was above 10 µM. Further, under setting [1], the IC50 was above 10 µM.

For `CCN(CC)c1ccc(Nc2nc(-c3ccncc3)cs2)cc1`, the concentration for an effect of 90% (IC90) is above 8.14 µM. Besides, the IC50 (HEPG2TOX_HILL_SLOPE 17.3, HEPG2TOX_R_SQUARED 0.807, PBLUC_HILL_SLOPE 2.78, PBLUC_R_SQUARED 0.42, read-out: LUCIFERASE INFECTION ASSAY - IC50) was determined as 4.75 µM.

For the compound `N=C(NOC(=O)c1cnn(-c2ccccc2)c1C(F)(F)F)c1ccc(Cl)cc1`, the IC90 was above 8.07 µM. Further, the half-inhibitory concentration (IC50) under setting [1] amounted to 1.06 µM.

In the case of `Oc1c(C(Nc2ccccn2)c2ccsc2)cc(Cl)c2cccnc12` (stereo not given), the IC90 was above 8.97 µM. The 50% inhibitory concentration (IC50) (FFLUC_HILL_SLOPE 4.25, FFLUC_R_SQUARED 0.273, HEPG2TOX_HILL_SLOPE 7.18, HEPG2TOX_R_SQUARED 0.784, PBLUC_HILL_SLOPE 2.69, PBLUC_R_SQUARED 0.266, read-out: LUCIFERASE INFECTION ASSAY - IC50) came to 4.02 µM.

As to `COc1ccc(C(OC(=O)c2ccccc2)c2nccc3ccccc23)cc1` (stereo not given), the 90% effect concentration (IC90) is above 8.93 µM. In addition, the IC50 (HEPG2TOX_HILL_SLOPE 1.92, HEPG2TOX_R_SQUARED 0.889, PBLUC_HILL_SLOPE 0.417, PBLUC_R_SQUARED 0.183, read-out: LUCIFERASE INFECTION ASSAY - IC50) was 5.78 µM.

Turning to `Cc1nc(NCCSc2nccn2C)c2c(-c3ccccc3)csc2n1`, the IC90 was above 10 µM. In addition, the IC50 under setting [1] is above 10 µM.

Take `N#Cc1ccc(C=C(C(=O)NCc2ccccc2)C(=O)NCc2ccccc2)cc1`: the IC90 was above 10 µM. In addition, the IC50 under setting [1] was above 10 µM.

For `COc1ccccc1-n1c(C)c(C)c2c1ncn1nc(-c3ccncc3)nc21`, the IC90 was above 8.91 µM. In addition, for the setting “PBLUC_HILL_SLOPE 2.29, PBLUC_R_SQUARED 0.762, read-out: LUCIFERASE INFECTION ASSAY - IC50”, the IC50 was above 8.91 µM.

As for `Cc1cnc(NC(=O)c2ccccc2NS(=O)(=O)c2cccc(C(F)(F)F)c2)s1`, the IC90 was above 10 µM. Also, the IC50 (HEPG2TOX_HILL_SLOPE 2.85, HEPG2TOX_R_SQUARED 0.86, read-out: LUCIFERASE INFECTION ASSAY - IC50) is above 10 µM.

In the case of `COc1ccc(CN2C(=O)N(C)C3(CCN(Cc4ccc(N5CCCC5)cc4)CC3)C2=O)cc1`, the IC90 was above 7.13 µM. Further, the concentration for half-maximal inhibition (IC50) (HEPG2TOX_HILL_SLOPE 9.02, HEPG2TOX_R_SQUARED 0.802, PBLUC_HILL_SLOPE 4.22, PBLUC_R_SQUARED 0.106, read-out: LUCIFERASE INFECTION ASSAY - IC50) was 5.16 µM.

For the compound `NS(=O)(=O)c1ccc(Nc2nc(-c3ccc(Cl)s3)cs2)cc1`, the IC90 is above 10 µM. Moreover, the IC50 (FFLUC_HILL_SLOPE 0.347, FFLUC_R_SQUARED 0.604, read-out: LUCIFERASE INFECTION ASSAY - IC50) was above 10 µM.

As for `Cc1nn(-c2ccccc2)c(Oc2ccc(Br)cc2)c1CNC1CCC(O)CC1` (stereo not given), the concentration for an effect of 90% (IC90) was above 10 µM. Also, the 50% inhibitory concentration (IC50) under setting [1] is above 10 µM.

As to `Cc1noc(N)c1-c1nc(-c2cccc(C(F)(F)F)c2)cs1`, the IC90 is above 10.1 µM. In addition, under “HEPG2TOX_HILL_SLOPE 3.53, HEPG2TOX_R_SQUARED 0.703, read-out: LUCIFERASE INFECTION ASSAY - IC50”, the 50% inhibitory concentration (IC50) was above 10.1 µM.

In the case of `Cn1nc(C(C)(C)C)cc1C(=O)Nc1ccc2nc(-c3cccs3)nn2c1`, the concentration for an effect of 90% (IC90) is above 10 µM. Further, the IC50 under setting [1] is above 10 µM.

As to `O=C(NC(=O)c1ccc(F)c(Cl)c1)Nc1nnc(C(F)(F)F)s1`, the 90% effect concentration (IC90) was above 8.95 µM. Where the note is “PBLUC_HILL_SLOPE 12, PBLUC_R_SQUARED 0.227, read-out: LUCIFERASE INFECTION ASSAY - IC50”, the IC50 was found to be 8.64 µM.

Regarding `CCOC(=O)c1c(NC(=O)CSc2nnc(N)[nH]2)sc(Br)c1-c1ccccc1`, the 90% effect concentration (IC90) is above 10 µM. Besides, under setting [1], the 50% inhibitory concentration (IC50) was determined as 6.28 µM.

Consider `O=c1nc(-c2ccc3c(c2)OCCO3)[nH]c2sc(-c3ccccc3)cc12`, for which the IC90 is 4.31 µM. For the same compound, the IC50 (HEPG2TOX_HILL_SLOPE 1.86, HEPG2TOX_R_SQUARED 0.902, PBLUC_HILL_SLOPE 1.77, PBLUC_R_SQUARED 0.594, read-out: LUCIFERASE INFECTION ASSAY - IC50) was found to be 1.25 µM.

On to `Cc1cc(C(=O)Nc2nc3cc(C(F)(F)F)ccc3n2Cc2ccco2)c2c(C)noc2n1`, for which the concentration for an effect of 90% (IC90) was 3.24 µM. Where the note is “HEPG2TOX_HILL_SLOPE 1.6, HEPG2TOX_R_SQUARED 0.983, PBLUC_HILL_SLOPE 3.8, PBLUC_R_SQUARED 0.87, read-out: LUCIFERASE INFECTION ASSAY - IC50”, the concentration for half-maximal inhibition (IC50) came to 1.82 µM.

With `CC(=O)c1cccc(-c2cnc3ccc(-c4ccoc4)nn23)c1`, the IC90 worked out at 6.77 µM. In addition, the IC50 (HEPG2TOX_HILL_SLOPE 0.314, HEPG2TOX_R_SQUARED 0.72, PBLUC_HILL_SLOPE 2.12, PBLUC_R_SQUARED 0.552, read-out: LUCIFERASE INFECTION ASSAY - IC50) was determined as 2.41 µM.

`Nc1ccc(C(OC(=O)c2ccc(Cl)cc2Cl)(C(F)(F)F)C(F)(F)F)cc1`: the IC90 is above 10 µM. Further, under “PBLUC_HILL_SLOPE 1.55, PBLUC_R_SQUARED 0.496, read-out: LUCIFERASE INFECTION ASSAY - IC50”, the IC50 came out at 8.08 µM.
